Source: patent US20130303487A1, “Compositions Comprising Zoledronic Acid or Related Compounds for Relieving Inflammatory Pain and Related Conditions” (priority 2012, published 2013)
Where two headings read alike, the source gives them in different places.

Key:
[1] = tested on: inflammatory pain (mechanical hyperalgesia); type: in vivo, Sprague-Dawley rats
Description: The effect of orally administered zoledronic acid on inflammatory pain was examined using the rat complete Freund's adjuvant (CFA) model. Inflammatory pain was induced by injection of 100% CFA in a 75 μL volume into the left hind paws of Sprague-Dawley rats on day 0, followed by assessments on days 1-3. Animals were orally administered vehicle (control), zoledronic acid 18 mg/m^2 (or 3 mg/kg), zoledronic acid 120 mg/m^2 (or 20 mg/kg), or zoledronic acid 900 mg/m^2 (or 150 mg/kg) daily on days 1-3. Drug was dissolved in distilled water and prepared fresh daily. Animals were fasted prior to dosing. Under current FDA guidelines for extrapolating starting dosages from animals to humans, dosages expressed in mg/m^2 are considered equivalent between mammalian species. Thus, for example, 18 mg/m^2 in a rat is considered equivalent to 18 mg/m^2 in a human being, while 3 mg/kg in a rat may not be equivalent to 3 mg/kg in a human being.
Values for inflammatory pain (mechanical hyperalgesia) in the vehicle and drug-treated animals were obtained on day 0 prior to CFA injection, and at baseline and post-treatment on days 1-3. Pain was assessed using a digital Randall-Selitto device (dRS; IITC Life Sciences, Woodland Hills, Calif.). Animals were placed in a restraint sling that suspended the animal, leaving the hind limbs available for testing. Paw compression threshold was measured by applying increasing pressure to the plantar surface of the hind paw with a dome-shaped tip placed between the 3rd and 4th metatarsus. Pressure was applied gradually over approximately 10 seconds. Measurements were taken from the first observed nocifensive behavior of vocalization, struggle or withdrawal. A cut-off value of 300 g was used to prevent injury to the animal.
Reversal of inflammatory pain was calculated according to the formula:
% reversal=(Post-treatment−Post-CFA baseline)/(Pre-CFA baseline−Post-CFA baseline)×100.
The experiment was carried out using 9-10 animals per group.

[2] = tested on: complex regional pain syndrome (CRPS); assay: rat tibia fracture model of complex regional pain syndrome (CRPS): von Frey, weight bearing, edema, warmth; type: in vivo; details: oral 18 mg/m^2/day (3 mg/kg/day) for 28 days
Description: The effect of orally administered zoledronic acid was examined in the rat tibia fracture model of complex regional pain syndrome (CRPS). CRPS was induced in the rats by fracturing the right distal tibias of the animals and casting the fractured hindpaws for 4 weeks, as described in Guo T Z et al. (Pain. 2004; 108:95-107).
Animals were orally administered either vehicle (control) or zoledronic acid, in a dosage of 18 mg/m^2/day (3 mg/kg/day) for 28 days, starting on the day of fracture and casting. Drug was dissolved in distilled water and administered by gavage. Animals were fasted for 4 hours before and 2 hours after dosing. At the end of the 28-day period, casts were removed, and on the following day, the rats were tested for hindpaw pain, edema, and warmth.
Pain was assessed by measuring hyperalgesia, and weight bearing. […]
An incapacitance device (IITC Inc. Life Science, Woodland, Calif., USA) was used to measure hindpaw weight bearing, a postural effect of pain. […] Eight readings (excluding the highest and lowest ones) were averaged to calculate the bilateral hindpaw weight-bearing values. Weight bearing data were analyzed as the ratio between right (fracture) and left hindpaw weight bearing values ((2R/(R+L))×100%). […]
The temperature of the hindpaw was measured using a fine wire thermocouple (Omega, Stanford, Conn., USA) applied to the paw skin. […]

Compound: O=P(O)(O)C(O)(Cn1ccnc1)P(=O)(O)O [zoledronic acid]
- paw compression thresholds versus vehicle ([1]; oral 18 mg/m^2, entire measurement period after 30 minutes from start of treatment): higher than for vehicle
- paw compression thresholds versus vehicle ([1]; oral 120 mg/m^2 (20 mg/kg), all time points): approximately equal or inferior to vehicle
- toxicity ([1]; oral 900 mg/m^2 (150 mg/kg) daily days 1-3, two days after cessation of dosing): significant toxicity necessitating euthanization of all the animals in this group
- paw compression thresholds versus vehicle ([1]; oral 900 mg/m^2, day three): greater than for vehicle
- paw compression thresholds versus vehicle ([1]; two higher doses (120 and 900 mg/m^2), first two days of dosing): lower than vehicle
- hindlimb weight bearing on fracture hindlimb [2]: 86 % of normal
